The record followed here is US12060388B2, “Cell-penetrating peptides and methods of use thereof” (priority 2018, dated 2024).

One data set relates to HPV5 PsV. Description: Peptide inhibition of HPV5 PsV infection of HeLa-S3 cells, flow cytometry for HcRed. The class given is cell-based. As to conditions: 14 μM peptide, MOI of one, 48 h.p.i. The text has this: FIG. 18A (top) depicts sequences of L2 peptides. […] Amino acid substitutions in the CPP or RBS mutant peptides are shown in orange and blue, respectively. Bottom: RBS and flanking sequences of indicated HPV L2 proteins or DMT1-II. FIG. 18B depicts an inhibitory dose-response curve for P16/16 peptide. 5×10^4 HeLa-S3 in 24-well plates were pretreated with various concentrations of P16/16 for one hour prior to infection with HPV pseudovirus (PsV) at multiplicity of infection (MOI) of 1. Peptide was left in the medium for the duration of the experiment. Cells were assessed by flow cytometry to determine the fraction of cells expressing reporter protein HcRed at 48 hours post-infection (h.p.i.). […] Forty-eight h.p.i., cells were assessed by flow cytometry to determine fraction of cells expressing reporter protein HcRed. […] HaCaT keratinocytes were infected at MOI of 1 with HPV16 PsV in the presence and absence of 14 μM P16/16, and infectivity was assessed 48 h.p.i. by flow cytometry for HcRed fluorescence. […] Successful infection by HPV16 and HPV16 PsV was assessed by quantitative reverse transcription-PCR (qRT-PCR) for expression of HPV early region and HcRed mRNA, respectively, and normalized to infection by the cognate virus in the absence of peptide. Background signal determined with non-cognate primers was <0.01%. […]

The test system of a further data set is HeLa-S3 cells. The data set is described as follows: CellTiter-Fluor viability assay. The class given is cell-based. As to conditions: 14 μM for 4 or 24 hours. As for the experimental part: HeLa-S3 cells were incubated with medium, medium plus vehicle, or medium plus 14 μM P16/16 for 4 or 24 hours. Viability assay was performed by using the CellTiter-Fluor viability assay protocol (Promega, Cat #G6082). Briefly, an equal volume of CellTiter-Fluor reagent was added to each well without removing the medium, mixed briefly, then incubated for one hour at 37° C. Fluorescence was measured by using a GloMax Explorer Multimode Microplate Reader (380-400 nmEx/505 nmEm). n.s., not significant.

The test system of the next data set is HPV16 PsV. The data set is described as follows: HPV16 PsV internalization in peptide-treated HeLa-S3 cells, anti-L1 immunofluorescence. The class given is cell-based. As to conditions: 14 μM, MOI of 50, 8 or 16 h at 37° C. On the procedure:
HeLa-S3 cells were incubated with 14 μM P16/16 or vehicle for one hour, followed by infection with HPV16 PsV at MOI of 50 at 4° C. for 2 h. Cells were washed with PBS to remove loosely-bound PsV and then shifted to 37° C. to allow virus internalization. After 8 or 16 h at 37° C., samples were fixed with 4% paraformaldehyde, permeabilized with 1% saponin, and stained with anti-L1 antibody. Cells were also stained with DAPI to visualize nuclei and examined by a Leica SP5 confocal microscope.
For the internalization experiments, 5×10^4 HeLa-S3 cells were grown on glass coverslips for 16 hours. After one-hour incubation with or without peptides, PsV at MOI of 50 were added and incubated at 4° C. for 2 hours, washed with PBS three times to remove loosely bound PsV, and shifted to 37° C.to initiate infection. As a control, cells were incubated with the solution used to dissolve peptides alone. At the indicated times post-infection, samples were fixed, permeabilized and stained with anti-L1 and AlexaFluor 488 conjugated secondary antibody. Cells were analyzed by a Leica SP5 confocal microscope.

For the next data set, the target named is T1, retromer (Vps35) (Homo sapiens, UniProt O75436+Q96QK1).
T1 construct: endogenous in cells; host or cells: HeLa S3 lysate (RIPA-MOPS buffer)
The data set is described as follows: Biotinylated peptide pull-down from HeLa S3 lysate, blot for Vps35. The class given is binding. As to conditions: streptavidin pull-down. On the procedure:
For peptide pull-down experiments, N-terminal biotinylated L2 peptides (sequences shown in FIG. 2A) were purchased from ABClonal Science (Woburn, MA) at >95% purity. L2 wild-type was dissolved initially in 30% acetic acid and DMSO (˜70 μl each), and then dissolved in sterile deionized water with 0.01% sodium azide. L2-6A, L2-3R and L2-DM were initially solubilized in a small amount of DMSO (˜70-80 μl) and then dissolved in sterile deionized water with 0.01% sodium azide. Peptide stocks (5 mg/ml) were aliquoted and stored at −20° C. HeLa S3 cells plated in six-well plates were lysed at ˜80% confluency with 500 μl RIPA-MOPS buffer (20 mM morpholinepropanesulfonic acid [pH 7.0], 150 mM NaCl, 1% Nonidet P-40, 1 mM EDTA, 1% deoxycholic acid, 0.1% sodium dodecyl sulfate [SDS]) supplemented with protease inhibitors (1×HALT protease and phosphatase inhibitor cocktail (Thermo Scientific, Waltham, MA; #78443)). The lysate was centrifuged at 14,000 rpm for 20 min, and the supernatant was incubated with 10 μg of a biotinylated peptide for two h at 4° C. Fifty μl of streptavidin agarose beads slurry (Pierce, Rockford, IL; #20349) was added, and the mixture was gently rocked for 45 min at 4° C. […] Samples were analyzed by SDS-PAGE and immunoblotting with antibody recognizing Vps35 (Abcam, Cambridge, MA; ab57632).

On to `CC[C@H](C)[C@H](NC(=O)[C@@H](NC(=O)[C@H](Cc1ccc(O)cc1)NC(=O)[C@H](CCC(N)=O)NC(=O)[C@@H]1CCCN1C(=O)[C@H](CO)NC(=O)[C@@H](N)CS)[C@@H](C)O)C(=O)N[C@H](C(=O)N[C@@H](C)C(=O)N[C@@H](CC(=O)O)C(=O)N[C@@H](C)C(=O)NCC(=O)N[C@@H](CC(=O)O)C(=O)N[C@@H](Cc1ccccc1)C(=O)N[C@@H](Cc1ccc(O)cc1)C(=O)N[C@@H](CC(C)C)C(=O)N[C@@H](Cc1c[nH]cn1)C(=O)N1CCC[C@H]1C(=O)N[C@@H](CO)C(=O)N[C@@H](Cc1ccc(O)cc1)C(=O)N[C@@H](Cc1ccc(O)cc1)C(=O)N[C@@H](CCSC)C(=O)N[C@@H](CC(C)C)C(=O)N[C@@H](CCCNC(=N)N)C(=O)N[C@@H](CCCCN)C(=O)N[C@@H](CCCNC(=N)N)C(=O)N[C@@H](CCCNC(=N)N)C(=O)N[C@@H](CCCCN)C(=O)N[C@@H](CCCNC(=N)N)C(=O)O)[C@@H](C)CC` [P16/16], for which the “inhibition of HPV5 PsV infection” value in the data set with HPV5 PsV is “potently inhibited infection”. The “toxicity (morphology and cell viability assay)” value in the data set with HeLa-S3 cells is “no apparent toxicity”. For the same compound, in the data set on HPV16 PsV, the virus internalization result is reported as “did not inhibit virus internalization”. Further, the “retromer binding of L2 peptide in vitro” value at retromer (Vps35) is recorded as “competent for retromer binding in vitro”.
